Paper PMC8113240 (Scientific Reports, 2021)

Target: T1, FK506 binding protein 12 (FKBP12) (Homo sapiens, UniProt P42345+P62942)
T1 construct: gene FKBP1A; pAsh-FKBP12 co-transfected with phAG-mTOR in HeLa cells; with mTOR
Assay: Fluoppi cell assay of FKBP12-mTOR ternary complex formation in HeLa cells
Type: cell-based

T1 sequence (P62942 2-108, other chains not shown): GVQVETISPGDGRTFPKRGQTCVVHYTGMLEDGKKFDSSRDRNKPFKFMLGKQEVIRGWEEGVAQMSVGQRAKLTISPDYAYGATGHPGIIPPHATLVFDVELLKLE

- EC50: 1880 nM
Structure (SMILES): COC1CC(O)CC(=O)CC(=O)N2CCCCC2C(=O)OC(C(C)CC2CCC(O)C(OC)C2)CC(=O)C(C)C=C(C)C(O)C(OC)C(=O)C(C)CC(C)C=CC=CC=C1C (mixture of isomers) [compound 1, 1]
